Experimental data: US10961231B2, “NTCP inhibitors” (National Institute of Biological Sciences, Beijing, priority 2018, dated 2021)

These compounds were tested against T1, NTCP (Homo sapiens, UniProt Q14973) (assay: [3H]-TCA uptake assay (NTCP inhibition)). Details: IC50, given as a range, marked * (asterisk not explained).
T1 sequence (Q14973 1-349): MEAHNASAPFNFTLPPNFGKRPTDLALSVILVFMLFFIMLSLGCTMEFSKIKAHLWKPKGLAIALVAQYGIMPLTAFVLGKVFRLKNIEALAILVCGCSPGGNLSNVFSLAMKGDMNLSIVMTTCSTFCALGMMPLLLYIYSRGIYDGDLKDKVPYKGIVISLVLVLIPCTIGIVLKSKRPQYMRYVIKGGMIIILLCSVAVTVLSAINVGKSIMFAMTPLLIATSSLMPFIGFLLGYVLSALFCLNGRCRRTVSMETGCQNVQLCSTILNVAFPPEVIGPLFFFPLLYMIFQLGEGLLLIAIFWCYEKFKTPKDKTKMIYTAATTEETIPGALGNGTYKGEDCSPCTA
Type: cell-based
Outline: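 PTH and HepG2-NTCP cells kept 24 h in PMM to induce NTCP, then exposed 2 h to test compounds or DMSO. Uptake of 1 μM [3H]-taurocholate in Na+ Ringer's buffer (145 mM Na) ran 15 min at 37° C. Cells washed, lysed in 1% Triton X-100, and radioactivity counted by liquid scintillation.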

SMILES	IC50
CCC1NC(=O)C(C2OC(Oc3ccc(OCc4ccccc4)cc3)CC2C)N(C)C(=O)C(C(C)C)N(C)C(=O)C(CC(C)C)N(C)C(=O)C(CC(C)C)N(C)C(=O)C(C)NC(=O)C(C)NC(=O)C(CC(C)C)N(C)C(=O)C(C(C)C)NC(=O)C(CC(C)C)N(C)C(=O)CN(C)C1=O (stereo not shown) [Compound 57A-o]	1 to 100 µM
CCC1NC(=O)C(C2OC(Oc3cc(Cl)cc(OC)c3)CC2C)N(C)C(=O)C(C(C)C)N(C)C(=O)C(CC(C)C)N(C)C(=O)C(CC(C)C)N(C)C(=O)C(C)NC(=O)C(C)NC(=O)C(CC(C)C)N(C)C(=O)C(C(C)C)NC(=O)C(CC(C)C)N(C)C(=O)CN(C)C1=O (stereo not shown) [Compound 59A-o]	1 to 100 µM
CCC1NC(=O)C(C2OC(Oc3ccc4ccccc4c3)CC2C)N(C)C(=O)C(C(C)C)N(C)C(=O)C(CC(C)C)N(C)C(=O)C(CC(C)C)N(C)C(=O)C(C)NC(=O)C(C)NC(=O)C(CC(C)C)N(C)C(=O)C(C(C)C)NC(=O)C(CC(C)C)N(C)C(=O)CN(C)C1=O (stereo not shown) [Compound 62-o]	1 to 100 µM
CCC1NC(=O)C(C2OC(Sc3ccc4ccccc4c3)CC2C)N(C)C(=O)C(C(C)C)N(C)C(=O)C(CC(C)C)N(C)C(=O)C(CC(C)C)N(C)C(=O)C(C)NC(=O)C(C)NC(=O)C(CC(C)C)N(C)C(=O)C(C(C)C)NC(=O)C(CC(C)C)N(C)C(=O)CN(C)C1=O (stereo not shown) [Compound 62]	1 to 100 µM
CCC1NC(=O)C(C2OC(Oc3cc(Cl)cc(OCc4ccccc4)c3)CC2C)N(C)C(=O)C(C(C)C)N(C)C(=O)C(CC(C)C)N(C)C(=O)C(CC(C)C)N(C)C(=O)C(C)NC(=O)C(C)NC(=O)C(CC(C)C)N(C)C(=O)C(C(C)C)NC(=O)C(CC(C)C)N(C)C(=O)CN(C)C1=O (stereo not shown) [Compound 63-o]	1 to 100 µM
CCC1NC(=O)C(C2OC(Sc3cc(Cl)cc(OCc4ccccc4)c3)CC2C)N(C)C(=O)C(C(C)C)N(C)C(=O)C(CC(C)C)N(C)C(=O)C(CC(C)C)N(C)C(=O)C(C)NC(=O)C(C)NC(=O)C(CC(C)C)N(C)C(=O)C(C(C)C)NC(=O)C(CC(C)C)N(C)C(=O)CN(C)C1=O (stereo not shown) [Compound 63]	1 to 100 µM
CCC1NC(=O)C(C2OC(Oc3cc(Cl)cc(OCC4CCOCC4)c3)CC2C)N(C)C(=O)C(C(C)C)N(C)C(=O)C(CC(C)C)N(C)C(=O)C(CC(C)C)N(C)C(=O)C(C)NC(=O)C(C)NC(=O)C(CC(C)C)N(C)C(=O)C(C(C)C)NC(=O)C(CC(C)C)N(C)C(=O)CN(C)C1=O (stereo not shown) [Compound 67-o]	1 to 100 µM
CCC1NC(=O)C(C2OC(Sc3cc(Cl)cc(OCC4CCOCC4)c3)CC2C)N(C)C(=O)C(C(C)C)N(C)C(=O)C(CC(C)C)N(C)C(=O)C(CC(C)C)N(C)C(=O)C(C)NC(=O)C(C)NC(=O)C(CC(C)C)N(C)C(=O)C(C(C)C)NC(=O)C(CC(C)C)N(C)C(=O)CN(C)C1=O (stereo not shown) [Compound 67]	1 to 100 µM
CCC1NC(=O)C(C2OC(Oc3cccc(N(C)Cc4ccccc4)c3)CC2C)N(C)C(=O)C(C(C)C)N(C)C(=O)C(CC(C)C)N(C)C(=O)C(CC(C)C)N(C)C(=O)C(C)NC(=O)C(C)NC(=O)C(CC(C)C)N(C)C(=O)C(C(C)C)NC(=O)C(CC(C)C)N(C)C(=O)CN(C)C1=O (stereo not shown) [Compound 68-o]	1 to 100 µM
CCC1NC(=O)C(C2OC(Sc3cccc(N(C)Cc4ccccc4)c3)CC2C)N(C)C(=O)C(C(C)C)N(C)C(=O)C(CC(C)C)N(C)C(=O)C(CC(C)C)N(C)C(=O)C(C)NC(=O)C(C)NC(=O)C(CC(C)C)N(C)C(=O)C(C(C)C)NC(=O)C(CC(C)C)N(C)C(=O)CN(C)C1=O (stereo not shown) [Compound 68]	1 to 100 µM
CCC1NC(=O)C(C2OC(Oc3cccc(OCc4cccs4)c3)CC2C)N(C)C(=O)C(C(C)C)N(C)C(=O)C(CC(C)C)N(C)C(=O)C(CC(C)C)N(C)C(=O)C(C)NC(=O)C(C)NC(=O)C(CC(C)C)N(C)C(=O)C(C(C)C)NC(=O)C(CC(C)C)N(C)C(=O)CN(C)C1=O (stereo not shown) [Compound 69-o]	1 to 100 µM

Same assay, conditions: given as a range, marked * (asterisk not explained)

SMILES	IC50
CCC1NC(=O)C(C2OC(Oc3cccc(OCc4ccc5ccc(=O)oc5c4)c3)CC2C)N(C)C(=O)C(C(C)C)N(C)C(=O)C(CC(C)C)N(C)C(=O)C(CC(C)C)N(C)C(=O)C(C)NC(=O)C(C)NC(=O)C(CC(C)C)N(C)C(=O)C(C(C)C)NC(=O)C(CC(C)C)N(C)C(=O)CN(C)C1=O (stereo not shown) [Compound 58A-o]	1 to 100 µM
CCC1NC(=O)C(C2OC(Oc3cc(OC)cc(OCc4ccc(F)cc4)c3)CC2C)N(C)C(=O)C(C(C)C)N(C)C(=O)C(CC(C)C)N(C)C(=O)C(CC(C)C)N(C)C(=O)C(C)NC(=O)C(C)NC(=O)C(CC(C)C)N(C)C(=O)C(C(C)C)NC(=O)C(CC(C)C)N(C)C(=O)CN(C)C1=O (stereo not shown) [Compound 60A-o]	1 to 100 µM
CCC1NC(=O)C(C2OC(Oc3cc(Cl)cc(OCc4ccc(F)cc4)c3)CC2C)N(C)C(=O)C(C(C)C)N(C)C(=O)C(CC(C)C)N(C)C(=O)C(CC(C)C)N(C)C(=O)C(C)NC(=O)C(C)NC(=O)C(CC(C)C)N(C)C(=O)C(C(C)C)NC(=O)C(CC(C)C)N(C)C(=O)CN(C)C1=O (stereo not shown) [Compound 61A-o]	1 to 100 µM
CCC1NC(=O)C(C2OC(Oc3ccc(OC)c(OCc4ccccc4)c3)CC2C)N(C)C(=O)C(C(C)C)N(C)C(=O)C(CC(C)C)N(C)C(=O)C(CC(C)C)N(C)C(=O)C(C)NC(=O)C(C)NC(=O)C(CC(C)C)N(C)C(=O)C(C(C)C)NC(=O)C(CC(C)C)N(C)C(=O)CN(C)C1=O (stereo not shown) [Compound 64-o]	1 to 100 µM
CCC1NC(=O)C(C2OC(Sc3ccc(OC)c(OCc4ccccc4)c3)CC2C)N(C)C(=O)C(C(C)C)N(C)C(=O)C(CC(C)C)N(C)C(=O)C(CC(C)C)N(C)C(=O)C(C)NC(=O)C(C)NC(=O)C(CC(C)C)N(C)C(=O)C(C(C)C)NC(=O)C(CC(C)C)N(C)C(=O)CN(C)C1=O (stereo not shown) [Compound 64]	1 to 100 µM
CCC1NC(=O)C(C2OC(Oc3cc(OC)cc(OCc4ccccc4)c3)CC2C)N(C)C(=O)C(C(C)C)N(C)C(=O)C(CC(C)C)N(C)C(=O)C(CC(C)C)N(C)C(=O)C(C)NC(=O)C(C)NC(=O)C(CC(C)C)N(C)C(=O)C(C(C)C)NC(=O)C(CC(C)C)N(C)C(=O)CN(C)C1=O (stereo not shown) [Compound 65-o]	1 to 100 µM
CCC1NC(=O)C(C2OC(Sc3cc(OC)cc(OCc4ccccc4)c3)CC2C)N(C)C(=O)C(C(C)C)N(C)C(=O)C(CC(C)C)N(C)C(=O)C(CC(C)C)N(C)C(=O)C(C)NC(=O)C(C)NC(=O)C(CC(C)C)N(C)C(=O)C(C(C)C)NC(=O)C(CC(C)C)N(C)C(=O)CN(C)C1=O (stereo not shown) [Compound 65]	1 to 100 µM
CCC1NC(=O)C(C2OC(Oc3cc(OC)cc(OCC4CCOCC4)c3)CC2C)N(C)C(=O)C(C(C)C)N(C)C(=O)C(CC(C)C)N(C)C(=O)C(CC(C)C)N(C)C(=O)C(C)NC(=O)C(C)NC(=O)C(CC(C)C)N(C)C(=O)C(C(C)C)NC(=O)C(CC(C)C)N(C)C(=O)CN(C)C1=O (stereo not shown) [Compound 66-o]	1 to 100 µM
CCC1NC(=O)C(C2OC(Sc3cc(OC)cc(OCC4CCOCC4)c3)CC2C)N(C)C(=O)C(C(C)C)N(C)C(=O)C(CC(C)C)N(C)C(=O)C(CC(C)C)N(C)C(=O)C(C)NC(=O)C(C)NC(=O)C(CC(C)C)N(C)C(=O)C(C(C)C)NC(=O)C(CC(C)C)N(C)C(=O)CN(C)C1=O (stereo not shown) [Compound 66]	1 to 100 µM

Same assay, conditions: given as a range; assay not given

SMILES	IC50
CCC1NC(=O)C(C2OC(Sc3ccc(OCc4ccccc4)cc3)CC2C)N(C)C(=O)C(C(C)C)N(C)C(=O)C(CC(C)C)N(C)C(=O)C(CC(C)C)N(C)C(=O)C(C)NC(=O)C(C)NC(=O)C(CC(C)C)N(C)C(=O)C(C(C)C)NC(=O)C(CC(C)C)N(C)C(=O)CN(C)C1=O [Compound 57A, [2-((2R,3R)-5-(4-(benzyloxy)phenylthio)-3-methyltetrahydrofuran-2-yl)-2-(methylamino)acetic acid]^1-cyclosporin A]	0.001 to 1 µM
CCC1NC(=O)C(C2OC(Sc3cccc(OCc4ccc5ccc(=O)oc5c4)c3)CC2C)N(C)C(=O)C(C(C)C)N(C)C(=O)C(CC(C)C)N(C)C(=O)C(CC(C)C)N(C)C(=O)C(C)NC(=O)C(C)NC(=O)C(CC(C)C)N(C)C(=O)C(C(C)C)NC(=O)C(CC(C)C)N(C)C(=O)CN(C)C1=O [Compound 58A, [2-((2R,3R)-3-methyl-5-(3-((2-oxo-2H-chromen-7-yl)methoxy)phenylthio)tetrahydrofuran-2-yl)-2-(methylamino)acetic acid]^1-cyclosporin A]	0.001 to 1 µM
CCC1NC(=O)C(C2OC(Sc3cc(Cl)cc(OC)c3)CC2C)N(C)C(=O)C(C(C)C)N(C)C(=O)C(CC(C)C)N(C)C(=O)C(CC(C)C)N(C)C(=O)C(C)NC(=O)C(C)NC(=O)C(CC(C)C)N(C)C(=O)C(C(C)C)NC(=O)C(CC(C)C)N(C)C(=O)CN(C)C1=O [Compound 59A, [2-((2R,3R)-5-(3-chloro-5-methoxyphenylthio)-3-methyltetrahydrofuran-2-yl)-2-(methylamino)acetic acid]^1-cyclosporin A]	0.001 to 1 µM
CCC1NC(=O)C(C2OC(Sc3cc(OC)cc(OCc4ccc(F)cc4)c3)CC2C)N(C)C(=O)C(C(C)C)N(C)C(=O)C(CC(C)C)N(C)C(=O)C(CC(C)C)N(C)C(=O)C(C)NC(=O)C(C)NC(=O)C(CC(C)C)N(C)C(=O)C(C(C)C)NC(=O)C(CC(C)C)N(C)C(=O)CN(C)C1=O [Compound 60A, [2-((2R,3R)-5-(3-(4-fluorobenzyloxy)-5-methoxyphenylthio)-3-methyltetrahydrofuran-2-yl)-2-(methylamino)acetic acid]^1-cyclosporin A]	0.001 to 1 µM

Same assay, conditions: given as a range; assay not given; read-out: IC50

SMILES	IC50
CCC1NC(=O)C(C2OC(Sc3cc(Cl)cc(OCc4ccc(F)cc4)c3)CC2C)N(C)C(=O)C(C(C)C)N(C)C(=O)C(CC(C)C)N(C)C(=O)C(CC(C)C)N(C)C(=O)C(C)NC(=O)C(C)NC(=O)C(CC(C)C)N(C)C(=O)C(C(C)C)NC(=O)C(CC(C)C)N(C)C(=O)CN(C)C1=O [Compound 61A, [2-((2R,3R)-5-(3-chloro-5-(4-fluorobenzyloxy)phenylthio)-3-methyltetrahydrofuran-2-yl)-2-(methylamino)acetic acid] 1-cyclosporin A]	0.001 to 1 µM
